Laboratory results published in article PMC10590056, “Design and synthesis of cabotegravir derivatives bearing 1,2,3-triazole and evaluation of anti-liver cancer activity” (Frontiers in Pharmacology, 2023).
Where “and” joins values, the source holds several entries; their conditions need not be identical. Equal values may be shown once.

tested on: HepG2 cells; assay: MTT assay for cell proliferation and cytotoxicity, HepG2; assay type: cell-based; parameters: key to Inhibitory rate: inhibition rate = 1 - mean A490 sample/mean A490 control (fraction); details: HepG2, 48 h, MTT
Method: (§1) HepG2, HeLa, MCF-7, and KYSE-30 cells were grown in a humidified incubator at 37°C with 5% CO2 in DMEM supplemented with 10% fetal bovine serum (FBS), […] streptomycin, and 100 U/mL penicillin.
(§2) When HepG2 cells reached 80% confluence, they were treated with 1 mL of trypsin and resuspended at a density of 10^5 cells/mL. Then, 100 μL of cell suspension was seeded into each well of a 96-well plate and incubated in a humidified atmosphere. The different concentrations of KJ-5 and KJ-12 (0, 1, 2, 4, 8, 16, and 32 μM) were added to each well, and the cells were further incubated for 48 h. Afterward, 20 μL of the MTT solution (5 mg/mL) was added to each well, and incubation was continued for another 4 h. The supernatant was discarded, and 200 μL of the DMSO solution was added to each well. The plate was shaken for 10 min in the dark. The absorbance values were measured at 490 nm using an enzyme-linked detector. The cell inhibition rate (%) was calculated using the following formula: (1-Mean A490 sample/Mean A490 control) × 100%.

Structure (SMILES)	IC50
COc1c2n(cc(C(=O)Nc3cccc(-c4cn(-c5cccc(C(F)(F)F)c5)nn4)c3)c1=O)C[C@H]1OC[C@H](C)N1C2=O [KJ-8]	9.41 ± 1.3 µM
COc1c2n(cc(C(=O)Nc3cccc(-c4cn(-c5cccc(Br)c5)nn4)c3)c1=O)CC1OCC(C)N1C2=O (stereo not drawn) [KJ-18]	6.57 ± 1.45 µM
COc1c2n(cc(C(=O)Nc3cccc(-c4cn(-c5ccccc5F)nn4)c3)c1=O)C[C@H]1OC[C@H](C)N1C2=O [KJ-2]	25.3 ± 2.07 µM

same assay, conditions: HepG2; fraction, per experiment

Structure (SMILES)	Inhibitory rate	ODtreated/ODcontrol
COc1c2n(cc(C(=O)Nc3cccc(-c4cn(-c5cccc(C(F)(F)F)c5)nn4)c3)c1=O)C[C@H]1OC[C@H](C)N1C2=O [KJ-8]	0.6351 and 0.626 and 0.6586	0.3649 and 0.374 and 0.3414
COc1c2n(cc(C(=O)Nc3cccc(-c4cn(-c5cccc(Br)c5)nn4)c3)c1=O)CC1OCC(C)N1C2=O (stereo not drawn) [KJ-18]	0.7113 and 0.6793 and 0.7366	0.2887 and 0.3207 and 0.2634
COc1c2n(cc(C(=O)Nc3cccc(-c4cn(-c5ccccc5F)nn4)c3)c1=O)C[C@H]1OC[C@H](C)N1C2=O [KJ-2]	0.513 and 0.5093 and 0.5087	0.487 and 0.4907 and 0.4913

same assay, conditions: preliminary screening, HepG2, 16 μM, 48 h, mean±SD; unit not given

Structure (SMILES)	Inhibition rate (16μM), 48 h, HepG2
COc1c2n(cc(C(=O)Nc3cccc(-c4cn(-c5cccc(C(F)(F)F)c5)nn4)c3)c1=O)C[C@H]1OC[C@H](C)N1C2=O [KJ-8]	63.99±1.68
COc1c2n(cc(C(=O)Nc3cccc(-c4cn(-c5cccc(Br)c5)nn4)c3)c1=O)CC1OCC(C)N1C2=O (stereo not drawn) [KJ-18]	70.90±2.87
COc1c2n(cc(C(=O)Nc3cccc(-c4cn(-c5ccccc5F)nn4)c3)c1=O)C[C@H]1OC[C@H](C)N1C2=O [KJ-2]	51.03±0.23

tested on: KYSE-30 cells; assay: MTT assay for cell proliferation, KYSE-30; assay type: cell-based; parameters: key to Inhibitory rate: inhibition rate = 1 - mean A490 sample/mean A490 control (fraction); details: KYSE-30, first of three experiments
Method: as §1, §2

Structure (SMILES)	ODtreated/ODcontrol
COc1c2n(cc(C(=O)Nc3cccc(-c4cn(-c5cccc(C(F)(F)F)c5)nn4)c3)c1=O)C[C@H]1OC[C@H](C)N1C2=O [KJ-8]	0.3962
COc1c2n(cc(C(=O)Nc3cccc(-c4cn(-c5cccc(Br)c5)nn4)c3)c1=O)CC1OCC(C)N1C2=O (stereo not drawn) [KJ-18]	0.385
COc1c2n(cc(C(=O)Nc3cccc(-c4cn(-c5ccccc5F)nn4)c3)c1=O)C[C@H]1OC[C@H](C)N1C2=O [KJ-2]	0.5011

same assay, conditions: KYSE-30, given as fraction; first of three experiments

Structure (SMILES)	Inhibitory rate
COc1c2n(cc(C(=O)Nc3cccc(-c4cn(-c5cccc(C(F)(F)F)c5)nn4)c3)c1=O)C[C@H]1OC[C@H](C)N1C2=O [KJ-8]	0.6038
COc1c2n(cc(C(=O)Nc3cccc(-c4cn(-c5cccc(Br)c5)nn4)c3)c1=O)CC1OCC(C)N1C2=O (stereo not drawn) [KJ-18]	0.615
COc1c2n(cc(C(=O)Nc3cccc(-c4cn(-c5ccccc5F)nn4)c3)c1=O)C[C@H]1OC[C@H](C)N1C2=O [KJ-2]	0.4989

same assay, conditions: KYSE-30, given as fraction; second of three experiments

Structure (SMILES)	Inhibitory rate
COc1c2n(cc(C(=O)Nc3cccc(-c4cn(-c5cccc(C(F)(F)F)c5)nn4)c3)c1=O)C[C@H]1OC[C@H](C)N1C2=O [KJ-8]	0.6049
COc1c2n(cc(C(=O)Nc3cccc(-c4cn(-c5cccc(Br)c5)nn4)c3)c1=O)CC1OCC(C)N1C2=O (stereo not drawn) [KJ-18]	0.5247
COc1c2n(cc(C(=O)Nc3cccc(-c4cn(-c5ccccc5F)nn4)c3)c1=O)C[C@H]1OC[C@H](C)N1C2=O [KJ-2]	0.4582

same assay, conditions: KYSE-30, given as fraction; third of three experiments

Structure (SMILES)	Inhibitory rate
COc1c2n(cc(C(=O)Nc3cccc(-c4cn(-c5cccc(C(F)(F)F)c5)nn4)c3)c1=O)C[C@H]1OC[C@H](C)N1C2=O [KJ-8]	0.5814
COc1c2n(cc(C(=O)Nc3cccc(-c4cn(-c5cccc(Br)c5)nn4)c3)c1=O)CC1OCC(C)N1C2=O (stereo not drawn) [KJ-18]	0.5847
COc1c2n(cc(C(=O)Nc3cccc(-c4cn(-c5ccccc5F)nn4)c3)c1=O)C[C@H]1OC[C@H](C)N1C2=O [KJ-2]	0.3717

same assay, conditions: KYSE-30, second of three experiments

Structure (SMILES)	ODtreated/ODcontrol
COc1c2n(cc(C(=O)Nc3cccc(-c4cn(-c5cccc(C(F)(F)F)c5)nn4)c3)c1=O)C[C@H]1OC[C@H](C)N1C2=O [KJ-8]	0.3951
COc1c2n(cc(C(=O)Nc3cccc(-c4cn(-c5cccc(Br)c5)nn4)c3)c1=O)CC1OCC(C)N1C2=O (stereo not drawn) [KJ-18]	0.4753
COc1c2n(cc(C(=O)Nc3cccc(-c4cn(-c5ccccc5F)nn4)c3)c1=O)C[C@H]1OC[C@H](C)N1C2=O [KJ-2]	0.5418

same assay, conditions: KYSE-30, third of three experiments

Structure (SMILES)	ODtreated/ODcontrol
COc1c2n(cc(C(=O)Nc3cccc(-c4cn(-c5cccc(C(F)(F)F)c5)nn4)c3)c1=O)C[C@H]1OC[C@H](C)N1C2=O [KJ-8]	0.4186
COc1c2n(cc(C(=O)Nc3cccc(-c4cn(-c5cccc(Br)c5)nn4)c3)c1=O)CC1OCC(C)N1C2=O (stereo not drawn) [KJ-18]	0.4153
COc1c2n(cc(C(=O)Nc3cccc(-c4cn(-c5ccccc5F)nn4)c3)c1=O)C[C@H]1OC[C@H](C)N1C2=O [KJ-2]	0.6283

same assay, conditions: preliminary screening, KYSE-30, 16 μM, 48 h, mean±SD; unit not given

Structure (SMILES)	Inhibition rate (16μM), 48 h, KYSE-30
COc1c2n(cc(C(=O)Nc3cccc(-c4cn(-c5cccc(C(F)(F)F)c5)nn4)c3)c1=O)C[C@H]1OC[C@H](C)N1C2=O [KJ-8]	59.67±1.33
COc1c2n(cc(C(=O)Nc3cccc(-c4cn(-c5cccc(Br)c5)nn4)c3)c1=O)CC1OCC(C)N1C2=O (stereo not drawn) [KJ-18]	57.48±4.60
COc1c2n(cc(C(=O)Nc3cccc(-c4cn(-c5ccccc5F)nn4)c3)c1=O)C[C@H]1OC[C@H](C)N1C2=O [KJ-2]	44.92±6.50

tested on: HeLa cells; assay: MTT assay for cell proliferation, HeLa; assay type: cell-based; parameters: key to Inhibitory rate: inhibition rate = 1 - mean A490 sample/mean A490 control (fraction); details: Hela; fraction, per experiment
Method: as §1, §2

Structure (SMILES)	Inhibitory rate	ODtreated/ODcontrol
COc1c2n(cc(C(=O)Nc3cccc(-c4cn(-c5cccc(C(F)(F)F)c5)nn4)c3)c1=O)C[C@H]1OC[C@H](C)N1C2=O [KJ-8]	0.6574 and 0.6919 and 0.6249	0.3426 and 0.3081 and 0.3751
COc1c2n(cc(C(=O)Nc3cccc(-c4cn(-c5cccc(Br)c5)nn4)c3)c1=O)CC1OCC(C)N1C2=O (stereo not drawn) [KJ-18]	0.6347 and 0.6562 and 0.6485	0.3653 and 0.3438 and 0.3515
COc1c2n(cc(C(=O)Nc3cccc(-c4cn(-c5ccccc5F)nn4)c3)c1=O)C[C@H]1OC[C@H](C)N1C2=O [KJ-2]	0.497 and 0.5116 and 0.431	0.503 and 0.4884 and 0.569

same assay, conditions: preliminary screening, Hela, 16 μM, 48 h, mean±SD; unit not given

Structure (SMILES)	Inhibition rate (16μM), 48 h, Hela
COc1c2n(cc(C(=O)Nc3cccc(-c4cn(-c5cccc(C(F)(F)F)c5)nn4)c3)c1=O)C[C@H]1OC[C@H](C)N1C2=O [KJ-8]	65.81±3.35
COc1c2n(cc(C(=O)Nc3cccc(-c4cn(-c5cccc(Br)c5)nn4)c3)c1=O)CC1OCC(C)N1C2=O (stereo not drawn) [KJ-18]	64.65±1.09
COc1c2n(cc(C(=O)Nc3cccc(-c4cn(-c5ccccc5F)nn4)c3)c1=O)C[C@H]1OC[C@H](C)N1C2=O [KJ-2]	47.99±4.29

tested on: MCF-7 cells; assay: MTT assay for cell proliferation, MCF-7; assay type: cell-based; parameters: key to Inhibitory rate / Inhibition rate: inhibition rate = 1 - mean A490 sample/mean A490 control (fraction); details: MCF-7; fraction, per experiment
Method: as §1, §2

Structure (SMILES)	Inhibitory rate	ODtreated/ODcontrol
COc1c2n(cc(C(=O)Nc3cccc(-c4cn(-c5cccc(C(F)(F)F)c5)nn4)c3)c1=O)C[C@H]1OC[C@H](C)N1C2=O [KJ-8]	0.6331	0.3669
COc1c2n(cc(C(=O)Nc3cccc(-c4cn(-c5cccc(Br)c5)nn4)c3)c1=O)CC1OCC(C)N1C2=O (stereo not drawn) [KJ-18]	0.5861	0.4139
COc1c2n(cc(C(=O)Nc3cccc(-c4cn(-c5ccccc5F)nn4)c3)c1=O)C[C@H]1OC[C@H](C)N1C2=O [KJ-2]	0.5009	0.4991

same assay, conditions: given as fraction; second of three experiments

Structure (SMILES)	Inhibitory rate
COc1c2n(cc(C(=O)Nc3cccc(-c4cn(-c5cccc(C(F)(F)F)c5)nn4)c3)c1=O)C[C@H]1OC[C@H](C)N1C2=O [KJ-8]	0.5745
COc1c2n(cc(C(=O)Nc3cccc(-c4cn(-c5cccc(Br)c5)nn4)c3)c1=O)CC1OCC(C)N1C2=O (stereo not drawn) [KJ-18]	0.5487
COc1c2n(cc(C(=O)Nc3cccc(-c4cn(-c5ccccc5F)nn4)c3)c1=O)C[C@H]1OC[C@H](C)N1C2=O [KJ-2]	0.4718

same assay, conditions: given as fraction; third of three experiments

Structure (SMILES)	Inhibition rate
COc1c2n(cc(C(=O)Nc3cccc(-c4cn(-c5cccc(C(F)(F)F)c5)nn4)c3)c1=O)C[C@H]1OC[C@H](C)N1C2=O [KJ-8]	0.558
COc1c2n(cc(C(=O)Nc3cccc(-c4cn(-c5cccc(Br)c5)nn4)c3)c1=O)CC1OCC(C)N1C2=O (stereo not drawn) [KJ-18]	0.6055
COc1c2n(cc(C(=O)Nc3cccc(-c4cn(-c5ccccc5F)nn4)c3)c1=O)C[C@H]1OC[C@H](C)N1C2=O [KJ-2]	0.4501

same assay, conditions: preliminary screening, MCF-7, 16 μM, 48 h, mean±SD; unit not given

Structure (SMILES)	Inhibition rate (16μM), 48 h, MCF-7
COc1c2n(cc(C(=O)Nc3cccc(-c4cn(-c5cccc(C(F)(F)F)c5)nn4)c3)c1=O)C[C@H]1OC[C@H](C)N1C2=O [KJ-8]	58.85±3.95
COc1c2n(cc(C(=O)Nc3cccc(-c4cn(-c5cccc(Br)c5)nn4)c3)c1=O)CC1OCC(C)N1C2=O (stereo not drawn) [KJ-18]	58.01±2.89
COc1c2n(cc(C(=O)Nc3cccc(-c4cn(-c5ccccc5F)nn4)c3)c1=O)C[C@H]1OC[C@H](C)N1C2=O [KJ-2]	47.43±2.55

same assay, conditions: second of three experiments

Structure (SMILES)	ODtreated/ODcontrol
COc1c2n(cc(C(=O)Nc3cccc(-c4cn(-c5cccc(C(F)(F)F)c5)nn4)c3)c1=O)C[C@H]1OC[C@H](C)N1C2=O [KJ-8]	0.4255
COc1c2n(cc(C(=O)Nc3cccc(-c4cn(-c5cccc(Br)c5)nn4)c3)c1=O)CC1OCC(C)N1C2=O (stereo not drawn) [KJ-18]	0.4513
COc1c2n(cc(C(=O)Nc3cccc(-c4cn(-c5ccccc5F)nn4)c3)c1=O)C[C@H]1OC[C@H](C)N1C2=O [KJ-2]	0.5282

same assay, conditions: third of three experiments

Structure (SMILES)	ODtreated/ODcontrol
COc1c2n(cc(C(=O)Nc3cccc(-c4cn(-c5cccc(C(F)(F)F)c5)nn4)c3)c1=O)C[C@H]1OC[C@H](C)N1C2=O [KJ-8]	0.442
COc1c2n(cc(C(=O)Nc3cccc(-c4cn(-c5cccc(Br)c5)nn4)c3)c1=O)CC1OCC(C)N1C2=O (stereo not drawn) [KJ-18]	0.3945
COc1c2n(cc(C(=O)Nc3cccc(-c4cn(-c5ccccc5F)nn4)c3)c1=O)C[C@H]1OC[C@H](C)N1C2=O [KJ-2]	0.5499
